Bounds are passed on as bounds.

The target in the first assay is T1, human plasma kallikrein (Homo sapiens (Human), UniProt P03952).
T1 sequence (P03952 whole entry, looked up): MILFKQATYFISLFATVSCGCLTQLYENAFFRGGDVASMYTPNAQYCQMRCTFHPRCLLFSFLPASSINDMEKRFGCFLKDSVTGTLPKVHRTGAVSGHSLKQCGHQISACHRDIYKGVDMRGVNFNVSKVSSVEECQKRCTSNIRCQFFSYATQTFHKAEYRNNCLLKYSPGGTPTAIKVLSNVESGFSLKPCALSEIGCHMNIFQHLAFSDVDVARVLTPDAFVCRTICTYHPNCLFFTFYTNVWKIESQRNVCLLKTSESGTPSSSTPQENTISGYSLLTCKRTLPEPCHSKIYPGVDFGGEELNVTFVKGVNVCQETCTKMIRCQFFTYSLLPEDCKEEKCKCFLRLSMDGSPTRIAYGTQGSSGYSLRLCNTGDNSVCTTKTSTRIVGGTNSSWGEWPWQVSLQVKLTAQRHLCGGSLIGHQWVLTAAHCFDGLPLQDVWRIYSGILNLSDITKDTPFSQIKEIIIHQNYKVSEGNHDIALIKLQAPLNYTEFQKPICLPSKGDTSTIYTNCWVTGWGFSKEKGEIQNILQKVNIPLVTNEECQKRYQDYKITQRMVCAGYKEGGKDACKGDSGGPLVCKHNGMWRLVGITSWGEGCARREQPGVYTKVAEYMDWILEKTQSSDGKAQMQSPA
T1 sequence (P03952 whole entry partner, looked up): as the sequence (P03952 whole entry, looked up) above
Assay: not given
Particulars: human plasma kallikrein 25 pM, substrate 0.5 uM, 1 hour pre-incubation at room temperature, read at t=60 min.
Take `Cc1cc(N)nc(C)c1CNC(=O)c1c(C)c(C)n(S(=O)(=O)c2ccccc2)c1C` [Example 183, N-((6-Amino-2,4-dimethylpyridin-3-yl)methyl)-2,4,5-trimethyl-1-(Phenylsulfonyl)-1H-pyrrole-3-carboxamide]: the IC50 (as a rule, the concentration that gives 50% inhibition) was more than 100000 nM.
The compound `Nc1ccc(CNC(=O)c2cnn(Cc3ccccc3)c2)cn1` [Example 182, N-((6-Aminopyridin-3-yl)methyl)-1-benzyl-1H-pyrazole-4-carboxamide] displayed an IC50 of more than 100000 nM.
Same read-out and setting: the value for `Cc1cc(N)nc(C)c1CNC(=O)c1cnn(Cc2ccc(CN3CCCC3=O)cc2)c1` [Example 143, N-((6-amino-2,4-dimethylpyridin-3-yl)methyl)-1-(4-((2-oxopyrrolidin-1-yl)methyl)benzyl)-1H-pyrazole-4-carboxamide] was 2.6 nM; that for `Cc1cn(S(=O)(=O)c2ccccc2)cc1C(=O)NCc1c(C)cc(N)nc1C` [Example 74, N-((6-amino-2,4-dimethylpyridin-3-yl)methyl)-4-methyl-1-(phenylsulfonyl)-1H-pyrrole-3-carboxamide] was 595 nM; that for `Cc1ccc2cc(Cn3cc(C(=O)NCc4c(Cl)cc(N)nc4C)nn3)ccc2n1` [Example 175, N-((6-Amino-4-chloro-2-methylpyridin-3-yl)methyl)-1-((2-methylquinolin-6-yl)methyl)-1H-1,2,3-triazole-4-carboxamide] was 61 nM.
As to `Cc1ccc2cc(Cc3nc(C(=O)NCc4c(C)cc(N)nc4C)co3)ccc2n1` [Example 170, N-((6-amino-2,4-dimethylpyridin-3-yl)methyl)-2-((2-methylquinolin-6-yl)methyl)oxazole-4-carboxamide], half-maximal inhibition (IC50) was put at 9.7 nM.
As for `Cc1cc(N)nc(C)c1CNC(=O)c1cn(Cc2ccccc2C#N)c2ccccc12` [Example 107, N-((6-amino-2,4-dimethylpyridin-3-yl)methyl)-1-(2-cyanobenzyl)-1H-indole-3-carboxamide], it took 1800 nM to reach half-maximal inhibition (IC50). Compared with the last compound, the IC50 is about 190-fold higher.
`Cc1cc(N)nc(C)c1CNC(=O)c1cnn(Cc2cnc3ccccc3c2)c1` [Example 155, N-((6-amino-2,4-dimethylpyridin-3-yl)methyl)-1-(quinolin-3-ylmethyl)-1H-pyrazole-4-carboxamide] gave an IC50 of 3 nM.
In turn, `COc1ccc(Cc2nc(C(=O)NCc3c(C)cc(N)nc3C)co2)cc1` [Example 8, N-((6-amino-2,4-dimethylpyridin-3-yl)methyl)-2-(4-methoxybenzyl)oxazole-4-carboxamide] registered an IC50 of 2640 nM.
Still for that read-out and setting: the value for `Cc1cc(N)nc(C)c1CNC(=O)c1ncn(Cc2ccc3ccccc3c2)n1` [Example 64, N-((6-amino-2,4-dimethylpyridin-3-yl)methyl)-1-(naphthalen-2-ylmethyl)-1H-1,2,4-triazole-3-carboxamide] was 14 nM; that for `Cc1cc(N)nc(C)c1CNC(=O)c1cnn(Cc2ccnc(N3CCOCC3)c2)c1` [Example 69, N-((6-amino-2,4-dimethylpyridin-3-yl)methyl)-1-((2-morpholinopyridin-4-yl)methyl)-1H-pyrazole-4-carboxamide] was 1600 nM; that for `Cc1cc(N)nc(C)c1CNC(=O)c1ccn(S(=O)(=O)c2cccc(-c3ncccn3)c2)c1` [Example 132, N-((6-amino-2,4-dimethylpyridin-3-yl)methyl)-1-(3-(pyrimidin-2-yl)phenylsulfonyl)-1H-pyrrole-3-carboxamide] was 71 nM.
For the compound `Cc1cc(N)nc(C)c1CNC(=O)c1cnn(Cc2ccc(Cn3ccc(=O)[nH]3)cc2)c1` [Example 139, N-((6-amino-2,4-dimethylpyridin-3-yl)methyl)-1-(4-((3-oxo-2,3-dihydro-1H-pyrazol-1-yl)methyl)benzyl)-1H-pyrazole-4-carboxamide], the half-inhibitory concentration (IC50) came to 4.9 nM.
`Cc1cc(C)n(Cc2ccc(Cn3cc(C(=O)NCc4c(C)cc(N)nc4C)nn3)cc2)n1` [Example 148, N-((6-amino-2,4-dimethylpyridin-3-yl)methyl)-1-(4-((3,5-dimethyl-1H-pyrazol-1-yl)methyl)benzyl)-1H-1,2,3-triazole-4-carboxamide]: the IC50 came to 0.03 nM.
The same measure, in the same setting: the value for `Cc1cc(N)nc(C)c1CNC(=O)c1cn(Cc2c(F)cccc2F)nn1` [Example 53, N-((6-amino-2,4-dimethylpyridin-3-yl)methyl)-1-(2,6-difluorobenzyl)-1H-1,2,3-triazole-4-carboxamide] was 3600 nM; that for `Cc1cc(N)nc(C)c1CNC(=O)c1cnn(Cc2coc(-c3ccccc3)n2)c1` [Example 32, N-((6-amino-2,4-dimethylpyridin-3-yl)methyl)-1-((2-phenyloxazol-4-yl)methyl)-1H-pyrazole-4-carboxamide] was 41 nM; that for `Cc1cc(N)nc(C)c1CNC(=O)c1cnn(Cc2cccc(C(=O)Nc3ccccc3)c2)c1` [Example 117, N-((6-amino-2,4-dimethylpyridin-3-yl)methyl)-1-(3-(phenylcarbamoyl)benzyl)-1H-pyrazole-4-carboxamide] was 152 nM.
For the compound `Cc1nc(Cn2cc(C(=O)NCc3c(C)cc(N)nc3C)cn2)cs1` [Example 97, N-((6-amino-2,4-dimethylpyridin-3-yl)methyl)-1-((2-methylthiazol-4-yl)methyl)-1H-pyrazole-4-carboxamide], the midpoint of inhibition, the IC50, lay at 1900 nM.
In the case of `Cc1nc(N)cc(Cl)c1CNC(=O)c1cnn(Cc2ccc(Cn3ccccc3=O)cc2)c1` [Example 167, N-((6-Amino-4-chloro-2-methylpyridin-3-yl)methyl)-1-(4-((2-oxopyridin-1(2H)-yl)methyl)benzyl)-1H-pyrazole-4-carboxamide], the IC50 turned out to be 0.2 nM.
As to `Cc1cc(N)nc(C)c1CNC(=O)c1cnn(Cc2cccc(C(N)=O)c2)c1` [Example 102, N-((6-amino-2,4-dimethylpyridin-3-yl)methyl)-1-(3-carbamoylbenzyl)-1H-pyrazole-4-carboxamide], it took 4000 nM to reach half-maximal inhibition (IC50).

In another assay the target is T1, human plasma kallikrein. In words: biochemical.
Details: not given
In turn, `Cc1cc(N)nc(C)c1CNC(=O)c1cnn(Cc2cccc(CO)n2)c1` [Example 99, N-((6-amino-2,4-dimethylpyridin-3-yl)methyl)-1-((6-(hydroxymethyl)pyridin-2-yl)methyl)-1H-pyrazole-4-carboxamide] had an IC50 of 7000 nM.
For `Cc1cc(N)nc(C)c1CNC(=O)c1cnn(Cc2nc3ccccc3nc2C)c1` [Example 104, N-((6-amino-2,4-dimethylpyridin-3-yl)methyl)-1-((3-methylquinoxalin-2-yl)methyl)-1H-pyrazole-4-carboxamide], the midpoint of inhibition, the IC50, lay at 113 nM.
The same measure, in the same setting: as for `Cc1cc(N)nc(C)c1CNC(=O)c1cnn(Cc2ccc3ncc(Cl)cc3c2)c1` [Example 173, N-((6-Amino-2,4-dimethylpyridin-3-yl)methyl)-1-((3-chloroquinolin-6-yl)methyl)-1H-pyrazole-4-carboxamide], the figure is 0.4 nM.

The assay is the same for the next values; noted with them: read-out: % inhibition at 100 μM.
In the case of `Cc1cc(N)nc(C)c1CNC(=O)c1c(C)c(C)n(S(=O)(=O)c2ccccc2)c1C` [Example 183, N-((6-Amino-2,4-dimethylpyridin-3-yl)methyl)-2,4,5-trimethyl-1-(Phenylsulfonyl)-1H-pyrrole-3-carboxamide], the inhibition (commonly the drop in the measured response relative to a control, in per cent) at 100 µM was determined as 39%.
With `Nc1ccc(CNC(=O)c2cnn(Cc3ccccc3)c2)cn1` [Example 182, N-((6-Aminopyridin-3-yl)methyl)-1-benzyl-1H-pyrazole-4-carboxamide], the inhibition at 100 µM turned out to be 38%.
